Measured values as given in the NIST ThermoML archive (doi:10.1021/je500772z).

Test: osmotic coefficient (dimensionless); mn = molality of the nth substance listed, in mol/kg
Details: 298.15 K, Liquid, isopiestic method

CC(C)C[C@H](N)C(=O)[O-].CCCCn1cc[n+](C)c1 [1-butyl-3-methylimidazolium L-leucinate] + O
Details	osmotic coefficient
m1 = 0	1
m1 = 0.0117	0.9528
m1 = 0.0184	0.9362
m1 = 0.0387	0.9254
m1 = 0.0649	0.9104
m1 = 0.0795	0.9093
m1 = 0.1123	0.9025
m1 = 0.1532	0.8977
m1 = 0.1914	0.8982
m1 = 0.2319	0.9005
m1 = 0.2687	0.9029
m1 = 0.3111	0.9101
m1 = 0.3711	0.9187
m1 = 0.4373	0.9255
m1 = 0.4915	0.9328
m1 = 0.5503	0.9423

CC(C)[C@H](N)C(=O)[O-].CCCCn1cc[n+](C)c1 [1-butyl-3-methylimidazolium L-valinate] + O
Details	osmotic coefficient
m1 = 0	1
m1 = 0.013	0.9595
m1 = 0.0202	0.9384
m1 = 0.0421	0.923
m1 = 0.0582	0.9121
m1 = 0.0723	0.9019
m1 = 0.1086	0.8899
m1 = 0.1458	0.8851
m1 = 0.1932	0.8794
m1 = 0.2434	0.8759
m1 = 0.2848	0.879
m1 = 0.3283	0.8828
m1 = 0.4013	0.8908
m1 = 0.4421	0.8986
m1 = 0.5035	0.9098
m1 = 0.576	0.9279

CCCCn1cc[n+](C)c1.NCC(=O)[O-] [1-butyl-3-methylimidazolium glycinate] + O
Details	osmotic coefficient
m1 = 0	1
m1 = 0.0179	0.941
m1 = 0.0266	0.9408
m1 = 0.0509	0.9167
m1 = 0.0737	0.9076
m1 = 0.0978	0.8916
m1 = 0.1314	0.8739
m1 = 0.1811	0.8658
m1 = 0.2166	0.853
m1 = 0.263	0.8465
m1 = 0.3181	0.8432
m1 = 0.3693	0.8407
m1 = 0.4305	0.8405
m1 = 0.5055	0.8474
m1 = 0.5791	0.8523
m1 = 0.6439	0.8526

CCCCn1cc[n+](C)c1.C[C@H](N)C(=O)[O-] [3-butyl-1-methyl-1H-imidazolium L-alaninate] + O
Details	osmotic coefficient
m1 = 0	1
m1 = 0.0134	0.9617
m1 = 0.0183	0.9405
m1 = 0.0416	0.9262
m1 = 0.0612	0.9103
m1 = 0.0821	0.9008
m1 = 0.109	0.8865
m1 = 0.1518	0.8725
m1 = 0.1962	0.8661
m1 = 0.242	0.8654
m1 = 0.2834	0.863
m1 = 0.3192	0.8594
m1 = 0.3741	0.8633
m1 = 0.4453	0.8672
m1 = 0.5047	0.8715
m1 = 0.5755	0.8812
